From article PMC9776291 (Biomolecules, 2022)
One block for each molecule: values may come before it.

Key:
Type in all cases: cell-based
GLUT4 = biological target: T1, GLUT4 (Homo sapiens, UniProt P14672); experiment: [3H]-2-deoxyglucose uptake in GLUT-expressing HEK293 cells
T1 construct: gene SLC2A4
T1 sequence (P14672 1-509): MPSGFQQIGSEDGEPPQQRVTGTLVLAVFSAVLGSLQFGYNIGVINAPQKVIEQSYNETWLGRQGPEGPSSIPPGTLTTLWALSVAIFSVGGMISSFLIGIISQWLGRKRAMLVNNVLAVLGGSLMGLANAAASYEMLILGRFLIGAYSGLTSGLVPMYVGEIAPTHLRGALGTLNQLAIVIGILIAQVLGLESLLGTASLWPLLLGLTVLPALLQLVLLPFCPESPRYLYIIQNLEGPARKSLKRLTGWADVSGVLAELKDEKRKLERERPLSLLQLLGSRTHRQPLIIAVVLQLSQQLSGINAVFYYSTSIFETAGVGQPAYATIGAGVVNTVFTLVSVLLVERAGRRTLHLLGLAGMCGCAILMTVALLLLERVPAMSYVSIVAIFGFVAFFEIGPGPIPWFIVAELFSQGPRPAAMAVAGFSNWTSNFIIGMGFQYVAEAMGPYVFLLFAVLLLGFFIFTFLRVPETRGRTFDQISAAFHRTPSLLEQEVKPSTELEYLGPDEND

GLUT6 = biological target: T2, GLUT6 (Homo sapiens, UniProt Q9UGQ3); experiment: as above
T2 construct: gene SLC2A6
T2 sequence (Q9UGQ3 1-507): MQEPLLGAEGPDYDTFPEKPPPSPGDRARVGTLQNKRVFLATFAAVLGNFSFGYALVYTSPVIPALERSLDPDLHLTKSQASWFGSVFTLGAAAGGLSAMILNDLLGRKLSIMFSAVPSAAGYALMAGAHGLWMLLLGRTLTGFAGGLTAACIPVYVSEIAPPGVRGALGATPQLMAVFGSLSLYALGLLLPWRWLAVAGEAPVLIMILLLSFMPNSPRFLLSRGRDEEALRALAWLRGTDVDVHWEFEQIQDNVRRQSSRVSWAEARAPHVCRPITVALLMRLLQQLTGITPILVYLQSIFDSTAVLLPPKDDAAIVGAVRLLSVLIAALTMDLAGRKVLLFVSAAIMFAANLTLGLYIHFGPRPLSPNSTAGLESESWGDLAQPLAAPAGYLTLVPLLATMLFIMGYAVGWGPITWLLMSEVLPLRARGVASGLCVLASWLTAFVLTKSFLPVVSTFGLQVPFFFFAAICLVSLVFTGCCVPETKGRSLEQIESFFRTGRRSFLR

GLUT10 = biological target: T3, GLUT10 (Homo sapiens, UniProt O95528); experiment: as above
T3 construct: gene SLC2A10
T3 sequence (O95528 1-541): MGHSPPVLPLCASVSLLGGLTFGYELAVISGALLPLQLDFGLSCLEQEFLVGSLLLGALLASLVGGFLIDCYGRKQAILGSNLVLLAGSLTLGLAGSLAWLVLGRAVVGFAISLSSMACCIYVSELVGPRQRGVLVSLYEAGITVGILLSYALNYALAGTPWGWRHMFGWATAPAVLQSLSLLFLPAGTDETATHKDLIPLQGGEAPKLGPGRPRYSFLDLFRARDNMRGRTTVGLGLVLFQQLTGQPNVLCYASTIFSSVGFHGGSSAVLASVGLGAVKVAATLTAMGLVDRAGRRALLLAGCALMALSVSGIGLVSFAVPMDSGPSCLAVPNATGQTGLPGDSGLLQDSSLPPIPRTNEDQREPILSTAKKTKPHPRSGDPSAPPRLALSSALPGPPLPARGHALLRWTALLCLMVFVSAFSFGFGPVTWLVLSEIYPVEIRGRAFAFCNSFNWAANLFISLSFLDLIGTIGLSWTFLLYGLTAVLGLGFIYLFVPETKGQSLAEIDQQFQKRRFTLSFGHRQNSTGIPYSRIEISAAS

GLUT2 = biological target: T4, GLUT2 (Homo sapiens, UniProt P11168); experiment: as above; details: 50 µM 2-deoxyglucose, 4 min; pH 7.3; labelled compound
T4 construct: gene SLC2A2
T4 sequence (P11168 1-524): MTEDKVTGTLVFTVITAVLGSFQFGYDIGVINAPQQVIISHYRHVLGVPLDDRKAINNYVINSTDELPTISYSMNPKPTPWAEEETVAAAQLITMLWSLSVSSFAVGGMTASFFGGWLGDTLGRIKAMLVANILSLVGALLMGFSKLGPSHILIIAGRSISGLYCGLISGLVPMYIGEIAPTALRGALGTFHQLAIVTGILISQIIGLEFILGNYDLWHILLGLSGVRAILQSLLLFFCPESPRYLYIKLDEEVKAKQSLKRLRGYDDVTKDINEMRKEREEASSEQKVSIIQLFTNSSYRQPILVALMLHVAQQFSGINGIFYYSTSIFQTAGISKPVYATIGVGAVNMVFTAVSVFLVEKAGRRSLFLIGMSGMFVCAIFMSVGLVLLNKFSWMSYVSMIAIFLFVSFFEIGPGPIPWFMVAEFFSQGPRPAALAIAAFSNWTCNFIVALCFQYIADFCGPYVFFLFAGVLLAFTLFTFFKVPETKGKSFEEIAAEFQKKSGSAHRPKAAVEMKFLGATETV

GLUT5 = biological target: T5, GLUT5 (Homo sapiens, UniProt P22732); experiment: [3H]-D-fructose uptake in GLUT-expressing HEK293 cells; details: 4 µM fructose, 2 min; pH 7.3; labelled compound
T5 construct: gene SLC2A5
T5 sequence (P22732 1-501): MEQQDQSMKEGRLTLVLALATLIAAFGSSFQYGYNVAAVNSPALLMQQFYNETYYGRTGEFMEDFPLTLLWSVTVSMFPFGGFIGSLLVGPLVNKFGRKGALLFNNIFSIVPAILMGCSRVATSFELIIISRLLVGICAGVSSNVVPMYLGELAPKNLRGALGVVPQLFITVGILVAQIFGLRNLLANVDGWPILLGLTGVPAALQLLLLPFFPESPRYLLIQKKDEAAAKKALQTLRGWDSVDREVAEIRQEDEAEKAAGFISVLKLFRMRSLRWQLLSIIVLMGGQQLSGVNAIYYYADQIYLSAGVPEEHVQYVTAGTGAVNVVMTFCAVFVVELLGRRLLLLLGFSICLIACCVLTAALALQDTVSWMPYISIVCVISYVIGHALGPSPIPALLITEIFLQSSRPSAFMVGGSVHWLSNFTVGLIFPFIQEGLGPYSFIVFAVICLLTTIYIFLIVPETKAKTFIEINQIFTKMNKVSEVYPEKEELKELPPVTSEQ

- IC50 (GLUT4): 5.4 µM
- IC50 (GLUT6): 2.2 µM
- IC50 (GLUT10): 1.7 µM
SMILES: Cc1c(NC(=O)c2cc(C(N)=O)nc3cc(F)ccc23)c(C(F)(F)F)nn1Cc1ccc(C#N)cc1 [BAY-876]

SMILES: OC[C@H]1OC(O)C[C@@H](O)[C@@H]1O (some centres unmarked) [[^3H]-2-deoxyglucose]
- [3H]-2-deoxyglucose uptake in GLUT-expressing HEK293 cells (GLUT2): HEK293 cells that stably express human GLUT transporters were incubated

SMILES: OCC1(O)OC[C@@H](O)[C@@H](O)[C@@H]1O (stereo partly drawn) [[^3H]-D-fructose]
- [3H]-D-fructose uptake in GLUT-expressing HEK293 cells (GLUT5): Fructose transport through GLUT5 was not impaired by BAY-876
